Source: patent US20220324803A1 (Teon Therapeutics, Inc., priority 2019, published 2022)

These compounds were tested against T1, human Prostanoid EP4 Receptor (EP4) (Homo sapiens, UniProt P35408) (assay: Prostanoid EP4 binding assay (3H-prostaglandin E2 displacement, cell membranes)). Conditions: HEK293 cell membranes with human EP4, 3H-prostaglandin E2, 24° C.
T1 construct: expressed in transfected cells; host or cells: HEK293 (G418 selection); membranes prepared by differential centrifugation
Description: HEK293 cells transfected with human Prostanoid EP4 Receptor (EP4) are maintained in DMEM supplemented with L-Glutamine, 10% FBS and 300 μg/ml G418. Cells are harvested and membranes prepared by differential centrifugation, following lysis of the cells in the presence of protease inhibitors, for use in the receptor binding assay. EP4 binding assay is performed in 50 mM HEPES pH7.4, 5 mM MgCl2, 1 mM CaCl2) and 0.2% BSA. Testing compounds are diluted with DMSO to make 8-point 4-fold serial dilution. Cell membrane homogenates are incubated at 24° C. with ^3H-prostaglandin E2 in the absence or presence of the testing compound in assay buffer. Nonspecific binding (Low control: LC) and total binding (High control: HC) are determined in the presence or absence of saturated cold ligand Prostaglandin E2 (PGE2). Specific binding is calculated by subtracting nonspecific binding from total binding. When binding assays are completed, the reaction mixture is filtered rapidly under vacuum through glass fiber filters (GF/C, Packard) presoaked with 0.5% BSA for at least 0.5 hour at room temperature and then washed for 4 times with cold wash buffer (50 mM HEPES pH7.4, 500 mM NaCl, 0.1% BSA) using a 96-sample Perkin Elmer Filtermate Harvester (Unifilter, Packard). The filters are dried for 1 hour at 50 degrees then counted for radioactivity in a scintillation counter using Perkin Elmer Microscint 20 cocktail. ^3H trapped on filter is counted using Perkin Elmer MicroBeta2 Reader. Inhibition is calculated using following equation: % Inhibition=(1−(Assay well−Average_LC)/(Average_HC−Average_LC))×100%. The results are expressed as a percent inhibition of the control radioligand specific binding. Data are analyzed and IC50 is calculated using GraphPad Prism 5 and the model “log(inhibitor) vs. response—Variable slope”. The binding affinity of the compounds is determined by using the Cheng and Prusoff equation Ki=IC50/(1+[radioligand]/Kd).

T1 sequence (P35408 whole entry): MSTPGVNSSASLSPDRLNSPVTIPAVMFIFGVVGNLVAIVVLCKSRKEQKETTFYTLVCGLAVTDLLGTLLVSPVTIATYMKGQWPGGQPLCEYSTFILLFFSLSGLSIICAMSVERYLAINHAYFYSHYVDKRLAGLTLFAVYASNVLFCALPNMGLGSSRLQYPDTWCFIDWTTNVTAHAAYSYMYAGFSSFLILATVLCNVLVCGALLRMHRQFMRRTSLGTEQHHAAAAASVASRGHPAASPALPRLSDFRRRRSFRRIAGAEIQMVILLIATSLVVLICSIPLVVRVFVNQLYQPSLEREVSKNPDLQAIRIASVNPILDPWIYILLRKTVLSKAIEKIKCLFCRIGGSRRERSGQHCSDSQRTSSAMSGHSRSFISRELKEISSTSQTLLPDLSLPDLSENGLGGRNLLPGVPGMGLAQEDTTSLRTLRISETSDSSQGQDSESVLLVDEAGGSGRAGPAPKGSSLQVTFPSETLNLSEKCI

| SMILES | Ki |
| --- | --- |
| O=C(N[C@H]1CC2(C1)C[C@H](C(=O)O)C2)c1ncn2cccc(Cc3ccc(C(F)(F)F)cc3)c12 (single isomer, unassigned) [Compound 6A, cis-2-[[8-[[4-(trifluoromethyl)phenyl]methyl]imidazo[1,5-a]pyridine-1-carbonyl]amino]spiro[3.3]heptane-6-carboxylic acid] | > 500 nM |
| O=C(N[C@H]1CC2(C1)C[C@H](C(=O)O)C2)c1ncn2cccc(Cc3ccc(C(F)(F)F)cc3)c12 (single isomer, unassigned) [Compound 6B, trans-2-[[8-[[4-(trifluoromethyl)phenyl]methyl]imidazo[1,5-a]pyridine-1-carbonyl]amino]spiro[3.3]heptane-6-carboxylic acid] | < 100 nM |
| CCn1nc(C(=O)N[C@H]2CC3(C2)C[C@H](C(=O)O)C3)c2c(Cc3ccc(C(F)(F)F)cc3)cccc21 (single isomer, unassigned) [Compound 11A, cis-2-[[1-ethyl-4-[[4-(trifluoromethyl)phenyl]methyl]indazole-3-carbonyl]amino]spiro[3.3]heptane-6-carboxylic acid] | 100 to 499 nM |
| CCn1nc(C(=O)N[C@H]2CC3(C2)C[C@H](C(=O)O)C3)c2c(Cc3ccc(C(F)(F)F)cc3)cccc21 (single isomer, unassigned) [Compound 11B, trans-2-[[1-ethyl-4-[[4-(trifluoromethyl)phenyl]methyl]indazole-3-carbonyl]amino]spiro[3.3]heptane-6-carboxylic acid] | < 100 nM |
| O=C(NC1CC2(C1)CC(C(=O)O)C2)c1cnn2cccc(Cc3cc4ccccc4cn3)c12 (single isomer, unassigned) [Compound 13B, trans-2-[[4-(3-isoquinolylmethyl)pyrazolo[1,5-a]pyridine-3-carbonyl]amino]spiro[3.3]heptane-6-carboxylic acid] | < 100 nM |
| C[C@H](NC(=O)c1ncn2cccc(Cc3ccc(C(F)(F)F)cc3)c12)c1ccc(C(=O)O)cc1 [Compound 5, 4-[(1S)-1-[[8-[[4-(trifluoromethyl)phenyl]methyl]imidazo[1,5-a]pyridine-1-carbonyl]amino]ethyl]benzoic acid] | 100 to 499 nM |
| O=C(O)CC12CC(NC(=O)c3ncn4cccc(Cc5ccc(C(F)(F)F)cc5)c34)(C1)C2 [Compound 17, 2-[3-[[8-[[4-(trifluoromethyl)phenyl]methyl]imidazo[1,5-a]pyridine-1-carbonyl]amino]-1-bicyclo[1.1.1]pentanyl]acetic acid] | 100 to 499 nM |
| CC(C)n1nc(C(=O)N[C@@H](C)c2ccc(C(=O)O)cc2)c2c(Cc3ccc(C(F)(F)F)cc3)cccc21 [Compound 20, 4-[(1S)-1-[[1-isopropyl-4-[[4-(trifluoromethyl)phenyl]methyl]indazole-3-carbonyl]amino]ethyl]benzoic acid] | < 100 nM |
| CC(C)n1nc(C(=O)N[C@H]2CC3(C2)C[C@H](C(=O)O)C3)c2c(Cc3ccc(C(F)(F)F)cc3)cccc21 (stereo partly drawn) [Compound 21, trans-2-[[1-isopropyl-4-[[4-(trifluoromethyl)phenyl]methyl]indazole-3-carbonyl]amino]spiro[3.3]heptane-6-carboxylic acid] | < 100 nM |
| CC(C)Cn1nc(C(=O)NC23CC(CC(=O)O)(C2)C3)c2c(Cc3ccc(C(F)(F)F)cc3)cccc21 [Compound 25, 2-[3-[[1-isobutyl-4-[[4-(trifluoromethyl)phenyl]methyl]indazole-3-carbonyl]amino]-1-bicyclo[1.1.1]pentanyl]acetic acid] | < 100 nM |
| O=C(O)Cc1ccc(NC(=O)c2cnn3cccc(Cc4ccc(C(F)(F)F)cc4)c23)cc1 [Compound 28, 2-[4-[[4-[[4-(trifluoromethyl)phenyl]methyl]pyrazolo[1,5-a]pyridine-3-carbonyl]amino]phenyl]acetic acid] | 100 to 499 nM |
| CC(C)n1nc2cccc(Cc3ccc(C(F)(F)F)cc3)c2c1C(=O)N[C@@H](C)c1ccc(C(=O)O)cc1 [Compound 29, 4-[(1S)-1-[[2-isopropyl-4-[[4-(trifluoromethyl)phenyl]methyl]indazole-3-carbonyl]amino]ethyl]benzoic acid] | < 100 nM |
| O=C(N[C@H]1CC[C@@H](C(=O)O)CC1)c1cnn2cccc(Cc3ccc(C(F)(F)F)cc3)c12 [Compound 32, (1s,4s)-4-[[4-[[4-(trifluoromethyl)phenyl]methyl]pyrazolo[1,5-a]pyridine-3-carbonyl]amino]cyclohexanecarboxylic acid] | > 500 nM |
| O=C(N[C@H]1CC[C@H](C(=O)O)CC1)c1cnn2cccc(Cc3ccc(C(F)(F)F)cc3)c12 [Compound 33, (1r,4r)-4-[[4-[[4-(trifluoromethyl)phenyl]methyl]pyrazolo[1,5-a]pyridine-3-carbonyl]amino]cyclohexanecarboxylic acid] | 100 to 499 nM |
| O=C(O)CC1CCC(NC(=O)c2cnn3cccc(Cc4ccc(C(F)(F)F)cc4)c23)CC1 (stereo not drawn) [Compound 34, 2-[4-[[4-[[4-(trifluoromethyl)phenyl]methyl]pyrazolo[1,5-a]pyridine-3-carbonyl]amino]cyclohexyl]acetic acid] | < 100 nM |
| O=C(O)CC12CCC(NC(=O)c3cnn4cccc(Cc5ccc(C(F)(F)F)cc5)c34)(CC1)CC2 [Compound 35, 2-(4-(4-(4-(trifluoromethyl)benzyl)pyrazolo[1,5-a]pyridine-3-carboxamido)bicyclo[2.2.2]octan-1-yl)acetic acid] | 100 to 499 nM |
| O=C(NC12CCC(C(=O)O)(CC1)CC2)c1cnn2cccc(Cc3ccc(C(F)(F)F)cc3)c12 [Compound 36, 4-[[4-[[4-(trifluoromethyl)phenyl]methyl]pyrazolo[1,5-a]pyridine-3-carbonyl]amino]bicyclo[2.2.2]octane-1-carboxylic acid] | 100 to 499 nM |

Further lines, results first:

| Ki | SMILES |
| --- | --- |
| 100 to 499 nM | CCn1nc(C(=O)NC23CC(CC(=O)O)(C2)C3)c2c(Cc3ccc(C(F)(F)F)cc3)cccc21 [Compound 19, 2-[3-[[1-ethyl-4-[[4-(trifluoromethyl)phenyl]methyl]indazole-3-carbonyl]amino]-1-bicyclo[1.1.1]pentanyl]acetic acid] |
| > 500 nM | CC(C)n1nc(C(=O)NC23CC(CC(=O)O)(C2)C3)c2c(Cc3ccc(C(F)(F)F)cc3)cccc21 [Compound 22, 2-[3-[[1-isopropyl-4-[[4-(trifluoromethyl)phenyl]methyl]indazole-3-carbonyl]amino]-1-bicyclo[1.1.1]pentanyl]acetic acid] |
| < 100 nM | CC(C)Cn1nc(C(=O)N[C@@H](C)c2ccc(C(=O)O)cc2)c2c(Cc3ccc(C(F)(F)F)cc3)cccc21 [Compound 23, 4-[(1S)-1-[[1-isobutyl-4-[[4-(trifluoromethyl)phenyl]methyl]indazole-3-carbonyl]amino]ethyl]benzoic acid] |
| < 100 nM | CC(C)Cn1nc(C(=O)N[C@H]2CC3(C2)C[C@H](C(=O)O)C3)c2c(Cc3ccc(C(F)(F)F)cc3)cccc21 (stereo partly drawn) [Compound 24, trans-2-[[1-isobutyl-4-[[4-(trifluoromethyl)phenyl]methyl]indazole-3-carbonyl]amino]spiro[3.3]heptane-6-carboxylic acid] |
| < 100 nM | O=C(O)c1ccc(C2(NC(=O)c3cnn4cccc(Cc5ccc(C(F)(F)F)cc5)c34)CC2)cc1 [Compound 26, 4-[1-[[4-[[4-(trifluoromethyl)phenyl]methyl]pyrazolo[1,5-a]pyridine-3-carbonyl]amino]cyclopropyl]benzoic acid] |
| < 100 nM | C[C@@H](NC(=O)c1cnn2cccc(Cc3ccc(C(F)(F)F)cc3)c12)c1ccc(C(=O)O)cc1 [Compound 27, 4-[(1R)-1-[[4-[[4-(trifluoromethyl)phenyl]methyl]pyrazolo[1,5-a]pyridine-3-carbonyl]amino]ethyl]benzoic acid] |
| 100 to 499 nM | CC(C)Cn1nc2cccc(Cc3ccc(C(F)(F)F)cc3)c2c1C(=O)N[C@@H](C)c1ccc(C(=O)O)cc1 [Compound 30, 4-[(1S)-1-[[2-isobutyl-4-[[4-(trifluoromethyl)phenyl]methyl]indazole-3-carbonyl]amino]ethyl]benzoic acid] |
| > 500 nM | O=C(Nc1ccc(C2(C(=O)O)CC2)cc1)c1cnn2cccc(Cc3ccc(C(F)(F)F)cc3)c12 [Compound 31, 1-[4-[[4-[[4-(trifluoromethyl)phenyl]methyl]pyrazolo[1,5-a]pyridine-3-carbonyl]amino]phenyl]cyclopropanecarboxylic acid] |
| < 100 nM | O=C(O)CC1CCC(NC(=O)c2cnn3cccc(Cc4ccc(C(F)(F)F)cc4)c23)C1 (stereo not drawn) [Compound 37, 2-[3-[[4-[[4-(trifluoromethyl)phenyl]methyl]pyrazolo[1,5-a]pyridine-3-carbonyl]amino]cyclopentyl]acetic acid] |
| < 100 nM | O=C(O)C[C@H]1CC[C@H](NC(=O)c2cnn3cccc(Cc4ccc(C(F)(F)F)cc4)c23)CC1 [Compound 38, 2-((1r,4r)-4-(4-(4-(trifluoromethyl)benzyl)pyrazolo[1,5-a]pyridine-3-carboxamido)cyclohexyl)acetic acid] |
